# Literature values as cited in patent publication US20030065040A1, “Pharmaceutical compositions including sampatrilat dispersed in a lipoidic vehicle” (priority 2001, published 2003).
# Read-outs that look alike come from different tables or passages of the source.
# How the values were obtained:
# [1] = man; reported to be as low as
# [2] = dogs; reported to be as low as
structure (smiles),measurement,setting,value
"CS(=O)(=O)N[C@@H](CCCCN)C(=O)NC[C@H](CC1(C(=O)N[C@@H](Cc2ccc(O)cc2)C(=O)O)CCCC1)C(=O)O [Sampatrilat, sampatrilat]",oral bioavailability,[1],2%
same,oral bioavailability,[2],5%
